# In patent publication US7109338B2, “1,2-disubstituted 1,4-dihydro-4-oxoquinoline compounds” (priority 1999, dated 2006):
# Legend:
# [1] = system: Poliovirus type 1 (Polio 1, Sabin); assay: microbe, parasite or virus in culture; type: cell-based
# [2] = system: echovirus type 11 (Echo 11, Gregory); assay: In vitro anti-picornavirus activity (MTT), Echo 11; type: cell-based; conditions: HeLa-S3 cells, MTT method, 37° C.
# [3] = system: coxsackievirus type A7 (CA7); assay: In vitro anti-picornavirus activity (MTT), CA7; type: cell-based; conditions: HeLa-S3 cells, MTT method, 37° C.
# [4] = system: coxsackievirus type B4 (CB4,JVB); assay: In vitro anti-picornavirus activity (MTT), CB4; type: cell-based; conditions: HeLa cells, MTT method, 37° C.
# HRV1A (E28) = assay: Anti-rhinovirus activity (MTT), HRV1A; type: cell-based, human rhinovirus; conditions: Table VII, rhinovirus serotype HRV1A, same method as above
# [5] = system: human rhinovirus type 1B (HRV 1B, B632); assay: Anti-rhinovirus activity (MTT), HRV1B; type: cell-based; parameters: Anti-Rhinovirus activity, HRV1B: unit not given here
# HRV 2 (HGP) = assay: Anti-rhinovirus activity (MTT), HRV2; type: cell-based, human rhinovirus; parameters: Anti-Rhinovirus activity, HRV2: unit not given here
# HRV14 (1059) = assay: Anti-rhinovirus activity (MTT), HRV14; type: cell-based, human rhinovirus; conditions: Table VII, rhinovirus serotype HRV14
# HRV 89 (41617-Gallo) = assay: Anti-rhinovirus activity (MTT), HRV89; type: cell-based, human rhinovirus; parameters: Anti-Rhinovirus activity, HRV89: unit not given here
# HRV3(FEB) = assay: Anti-rhinovirus spectrum (MTT), HRV3; type: cell-based, human rhinovirus; conditions: Table VII, rhinovirus serotype HRV3
# HRV5 = assay: Anti-rhinovirus spectrum (MTT), HRV5; type: cell-based, human rhinovirus; conditions: Table VII, rhinovirus serotype HRV5
# HRV8(MRH) = assay: Anti-rhinovirus spectrum (MTT), HRV8; type: cell-based, human rhinovirus; conditions: Table VII, rhinovirus serotype HRV8
# HRV10 (204-CV14) = assay: Anti-rhinovirus spectrum (MTT), HRV10; type: cell-based, human rhinovirus; conditions: Table VII, rhinovirus serotype HRV10
# HRV13 (353) = assay: Anti-rhinovirus spectrum (MTT), HRV13; type: cell-based, human rhinovirus; conditions: Table VII, rhinovirus serotype HRV13
# HRV16 (11757) = assay: Anti-rhinovirus spectrum (MTT), HRV16; type: cell-based, human rhinovirus; conditions: Table VII, rhinovirus serotype HRV16
# HRV21 (47) = assay: Anti-rhinovirus spectrum (MTT), HRV21; type: cell-based, human rhinovirus; conditions: Table VII, rhinovirus serotype HRV21
# HRV29 (5582) = assay: Anti-rhinovirus spectrum (MTT), HRV29; type: cell-based, human rhinovirus; conditions: Table VII, rhinovirus serotype HRV29
# HRV31 (41F) = assay: Anti-rhinovirus spectrum (MTT), HRV31; type: cell-based, human rhinovirus; conditions: Table VII, rhinovirus serotype HRV31
# HRV32 (363) = assay: Anti-rhinovirus spectrum (MTT), HRV32; type: cell-based, human rhinovirus; conditions: Table VII, rhinovirus serotype HRV32
# HRV33 (1200) = assay: Anti-rhinovirus spectrum (MTT), HRV33; type: cell-based, human rhinovirus; conditions: Table VII, rhinovirus serotype HRV33
# HRV36 (342H) = assay: Anti-rhinovirus spectrum (MTT), HRV36; type: cell-based, human rhinovirus; conditions: Table VII, rhinovirus serotype HRV36
# HRV39 (209) = assay: Anti-rhinovirus spectrum (MTT), HRV39; type: cell-based, human rhinovirus; conditions: Table VII, rhinovirus serotype HRV39
# HRV41 (56110) = assay: Anti-rhinovirus spectrum (MTT), HRV41; type: cell-based, human rhinovirus; conditions: Table VII, rhinovirus serotype HRV41
# HRV50(A2#58) = assay: Anti-rhinovirus spectrum (MTT), HRV50; type: cell-based, human rhinovirus; conditions: Table VII, rhinovirus serotype HRV50
# HRV61 (6669-CV39) = assay: Anti-rhinovirus spectrum (MTT), HRV61; type: cell-based, human rhinovirus; conditions: Table VII, rhinovirus serotype HRV61
# [6] = system: clinical isolate (89229T); assay: microbe, parasite or virus in culture; type: cell-based, human rhinovirus; conditions: Table VII, clinical isolate (89229T)
# [7] = system: Human rotavirus (HROV, Odelia); assay: In vitro anti-rotavirus activity (plaque reduction), HRoV; type: cell-based; conditions: MA104 cells, four days after infection
# Procedure: (§1) Human rotavirus (HROV, Odelia) and simian rotavirus (SRoV, SA11) were used in this experiment. Confluent monolayers of MA104 cells in 6-well multiplate were washed with Eagle MEM containing 0.5 μg/ml of trypsin and were infected with tripsinized-rotavirus (treated with 10 μg/ml of tripsin at 37° C. for 1.5 hr) at 50 PFU per well. After 1 hr of adsorption, the virus inoculum was removed, and the monolayers were washed with Eagle MEM containing 0.5 μg/ml of trypsin and overlaid with Eagle MEM containing 1 μg/ml of trypsin, 0.6% purified agar and the test compounds at various concentrations. The cultures were incubated at 37° C. for 3 days and same overlay medium was added. Four days after infection, the cell sheets were washed with PBS and stained with 1.3% crystal violet in 95% ethanol. The antiviral efficacy of the compounds was expressed as the IC50, that is the concentration of the compounds required to reduce the number of plaques to 50% in the control (virus-infected, but […]).
# [8] = system: simian rotavirus (SRoV, SA11); assay: In vitro anti-rotavirus activity (plaque reduction), SRoV; type: cell-based; conditions: MA104 cells, four days after infection
# Procedure: as §1
# HeLa cells = assay: Cytotoxicity (MTT, without virus), HeLa; conditions: HeLa, no virus, incubated for 4 days
# HeLa-S3 cells = assay: Cytotoxicity (MTT, without virus), HeLa-S3; conditions: HeLa-S3, no virus, incubated for 4 days
# HeLa (Ohio strain)cells = assay: Cytotoxicity (MTT, without virus), HeLa(Ohio); conditions: HeLa(Ohio), no virus, incubated for 4 days
# [9] = HeLa (Ohio strain) cells, MTT method, 33° C.
smiles,measurement,setting,value
Cc1c(-c2ccccc2)n(-c2ccc(F)cc2)c2ccc(C(C)C)cc2c1=O [Compound A323],IC50 Polio 1,[1],>2 µg/mL
same,IC50 Echo 11,[2],>2 µg/mL
same,IC50 CA7,[3],>2 µg/mL
same,IC50 CB4,[4],>2 µg/mL
same,"Anti-Rhinovirus activity, HRV1A",HRV1A (E28),>2.0
same,IC50 HRV1B,[5]; [9],0.27 µg/mL
same,"Anti-Rhinovirus activity, HRV1B","[5]; Table VII, rhinovirus serotype HRV1B",0.27
same,IC50 HRV2,HRV 2 (HGP); [9],0.038 µg/mL
same,"Anti-Rhinovirus activity, HRV2","HRV 2 (HGP); Table VII, rhinovirus serotype HRV2",0.038
same,"Anti-Rhinovirus activity, HRV14",HRV14 (1059),>2.0
same,IC50 HRV89,HRV 89 (41617-Gallo); [9],0.011 µg/mL
same,"Anti-Rhinovirus activity, HRV89","HRV 89 (41617-Gallo); Table VII, rhinovirus serotype HRV89",0.011
same,"Anti-Rhinovirus activity, HRV3",HRV3(FEB),>2.0
same,"Anti-Rhinovirus activity, HRV5",HRV5,>2.0
same,"Anti-Rhinovirus activity, HRV8",HRV8(MRH),>2.0
same,"Anti-Rhinovirus activity, HRV10",HRV10 (204-CV14),0.032
same,"Anti-Rhinovirus activity, HRV13",HRV13 (353),0.12
same,"Anti-Rhinovirus activity, HRV16",HRV16 (11757),0.033
same,"Anti-Rhinovirus activity, HRV21",HRV21 (47),0.067
same,"Anti-Rhinovirus activity, HRV29",HRV29 (5582),0.11
same,"Anti-Rhinovirus activity, HRV31",HRV31 (41F),0.088
same,"Anti-Rhinovirus activity, HRV32",HRV32 (363),0.077
same,"Anti-Rhinovirus activity, HRV33",HRV33 (1200),0.30
same,"Anti-Rhinovirus activity, HRV36",HRV36 (342H),0.13
same,"Anti-Rhinovirus activity, HRV39",HRV39 (209),0.018
same,"Anti-Rhinovirus activity, HRV41",HRV41 (56110),0.058
same,"Anti-Rhinovirus activity, HRV50",HRV50(A2#58),0.038
same,"Anti-Rhinovirus activity, HRV61",HRV61 (6669-CV39),0.30
same,Anti-rhinovirus activity Clinically isolated strain,[6],0.030
same,Anti-rotavirus activity IC50 HRoV(Odelia),[7],1.30 µg/mL
same,Anti-rotavirus activity IC50 SRoV(SA11),[8],0.90 µg/mL
same,Cytotoxicity CC50 HeLa,HeLa cells,>2 µg/mL
same,Cytotoxicity CC50 HeLa-S3,HeLa-S3 cells,>2 µg/mL
same,Cytotoxicity CC50 HeLa(Ohio),HeLa (Ohio strain)cells,>2 µg/mL
